Test results reported in patent US20150284399A1, “PROCESSES FOR THE PREPARATION OF S1P1 RECEPTOR MODULATORS AND CRYSTALLINE FORMS THEREOF” (Arena Pharmaceuticals, Inc., priority 2010, published 2015).

Tests used:
[1] = Dynamic moisture sorption (DMS); assay type: physicochemical; conditions: crystalline form
Experimental: Samples are prepared for dynamic moisture-sorption analysis by placing ˜5 mg to ˜20 mg of compound in a tarred sample holder on the VTI balance. The instrument is a dynamic moisture-sorption analyzer, VTI Corporation, SGA-100. A drying step is run at 40° C. and ˜1% RH for 1 h. The isotherm temperature is 25° C. A % weight change over 10 min (5 weight readings) of dm/dt=0.010 or 2 h, whichever occurs first, is required before continuing to the next step. The water content of the sample equilibrated as described above was determined from 30% RH to 90% RH and then back down to 10% RH.

[2] = molecular target: T1, S1P1 receptor (Homo sapiens, UniProt P21453); assay: HTRF assay for direct cAMP measurement; assay type: cell-based; conditions: recombinant CHO-K1 cells stably transfected with S1P1; agonist detected as decrease of cAMP concentration
T1 construct: expressed in transfected cells; host or cells: CHO-K1 (ATCC CCL-61), stably transfected
Excerpt: Compounds were screened for agonists of the S1P1 receptor (e.g., human S1P1 receptor) using the HTRF® assay for direct cAMP measurement (Gabriel et al., Assay and Drug Development Technologies, 1:291-303, 2003) and recombinant CHO-K1 cells stably transfected with S1P1. CHO-K1 cells were obtained from ATCC® (Manassas, Va.; Catalog #CCL-61). An agonist of the S1P1 receptor was detected in the HTRF® assay for direct cAMP measurement as a compound which decreased cAMP concentration. HTRF® assay also was used to determine EC50 values for S1P1 receptor agonists.
HTRF® assay kit was purchased from Cisbio-US, Inc. (Bedford, Mass.; Catalog #62AM4PEC). […] The specific signal (i.e., fluorescence resonance energy transfer, FRET) is inversely proportional to the concentration of unlabeled cAMP in the standard or sample.
The fluorescence ratio (665 nm/620 nm) of the standards (0.17 to 712 nM cAMP) included in the assay was calculated and used to generate a cAMP standard curve according to the kit manufacturer's instructions. The fluorescence ratio of the samples (test compound or compound buffer) was calculated and used to deduce respective cAMP concentrations by reference to the cAMP standard curve. […]
HTRF® readout was accomplished using a PHERAstar (BMG LABTECH Inc., Durham, N.C.) or EnVision™ (PerkinElmer, Fremont Calif.) microplate reader.

[3] = system: Male Sprague-Dawley rats; assay: Rat Peripheral Lymphocyte Lowering (PLL) assay; assay type: in vivo; conditions: 1.0 mg/kg oral dose in 0.5% methyl cellulose in water; 5 h post-dose; vs vehicle; FIG. 16
Experimental: Male Sprague-Dawley rats (Charles River Laboratories, Hollister, Calif.) were housed and maintained in humidity (40 to 60%) and temperature (68 to 72° F.) controlled facility on a 12 h: 12 h light/dark cycle (lights on at 6:30 am) with free access to food (Harlan Teklad, Orange, Calif., Rodent Diet 8604) and water. Rats were allowed (approximately) one week of habituation to the animal facility before testing.
Rats were given a 1.0 mg/kg oral dose of (R)-2-(9-chloro-7-(4-isopropoxy-3-(trifluoromethyl)benzyloxy)-2,3-dihydro-1H-pyrrolo[1,2-a]indol-1-yl)acetic acid or dosing vehicle (0.5% methyl cellulose in water) in a total volume of 1 mL/kg. Peripheral blood samples were collected at 5 h post-dose. Blood was collected via indwelling catheter. A complete cell count (CBC), including lymphocyte count, was obtained using a CELL-DYN® 3700 (Abbott Laboratories, Abbott Park, Ill.) instrument. Results are presented in FIG. 16, in which peripheral blood lymphocyte (PBL) count is shown for the 5 hour group.

T1 sequence (P21453 whole entry): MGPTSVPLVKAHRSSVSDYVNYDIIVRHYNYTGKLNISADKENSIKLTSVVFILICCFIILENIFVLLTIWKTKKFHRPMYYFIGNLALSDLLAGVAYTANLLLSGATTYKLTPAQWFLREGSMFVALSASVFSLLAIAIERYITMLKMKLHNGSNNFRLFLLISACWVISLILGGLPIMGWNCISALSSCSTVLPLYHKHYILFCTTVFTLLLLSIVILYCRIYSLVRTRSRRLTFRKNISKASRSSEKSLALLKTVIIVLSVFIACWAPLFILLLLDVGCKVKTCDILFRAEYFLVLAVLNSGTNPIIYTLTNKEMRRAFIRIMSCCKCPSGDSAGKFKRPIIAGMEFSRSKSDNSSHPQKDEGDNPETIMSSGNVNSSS

For `CC(C)Oc1ccc(COc2ccc3c(c2)c(Cl)c2n3CC[C@@H]2CC(=O)O)cc1C(F)(F)F` [(R)-2-(9-chloro-7-(4-isopropoxy-3-(trifluoromethyl)benzyloxy)-2,3-dihydro-1H-pyrrolo[1,2-a]indol-1-yl)acetic acid], which “hygroscopicity (DMS)” value ([1]; 10% RH to 90% RH at 25° C.) is on record?
Its value is “non-hygroscopic”.

And the “DMS weight gain over the full range of % RH tested” value ([1]; 10% RH to 90% RH at 25° C., listed as Crystalline form of (R)-2-(9-chloro-7-(4-isopropoxy-3-(trifluoromethyl)benzyloxy)))?
The value was “FIG. 3: gains less than about 0.1% weight over the full range”.

What about the “DMS weight gain over the full range of % RH tested” value ([1]; 10% RH to 90% RH at 25° C., listed as crystalline form of (R)-2-(9-chloro-7-(4-isopropoxy-3-(trifluoromethyl)benzyloxy))) of the same compound?
The value was “less than 0.1 % weight”.

And the “DMS maximum weight gain” value ([1]; adsorption phase of the DMS cycle at about 70% RH)?
The value was “about 0.06%”.

And the EC50 [2]?
The EC50 was 0.028 nM.

And the “peripheral blood lymphocyte (PBL) lowering (lymphopenia)” value [3]?
Its value is “exhibited activity for inducing PBL lowering (lymphopenia)”.
